pKd: −log10 of the molar value. Non-standard residues stand in square brackets, D forms with d. Residues, ends and D or L forms follow the SMILES beside them. hArg = N=C(N)NCCCC[C@H](N)C(=O)O; Nle = CCCC[C@H](N)C(=O)O

The experiment has as its target T1, PTH receptor present on SaOS-2 (human osteosarcoma cells) (Homo sapiens, UniProt Q03431).
T1 construct: host or cells: SaOS-2 human osteosarcoma cells (intact, confluent monolayers)
T1 sequence (Q03431 27-593): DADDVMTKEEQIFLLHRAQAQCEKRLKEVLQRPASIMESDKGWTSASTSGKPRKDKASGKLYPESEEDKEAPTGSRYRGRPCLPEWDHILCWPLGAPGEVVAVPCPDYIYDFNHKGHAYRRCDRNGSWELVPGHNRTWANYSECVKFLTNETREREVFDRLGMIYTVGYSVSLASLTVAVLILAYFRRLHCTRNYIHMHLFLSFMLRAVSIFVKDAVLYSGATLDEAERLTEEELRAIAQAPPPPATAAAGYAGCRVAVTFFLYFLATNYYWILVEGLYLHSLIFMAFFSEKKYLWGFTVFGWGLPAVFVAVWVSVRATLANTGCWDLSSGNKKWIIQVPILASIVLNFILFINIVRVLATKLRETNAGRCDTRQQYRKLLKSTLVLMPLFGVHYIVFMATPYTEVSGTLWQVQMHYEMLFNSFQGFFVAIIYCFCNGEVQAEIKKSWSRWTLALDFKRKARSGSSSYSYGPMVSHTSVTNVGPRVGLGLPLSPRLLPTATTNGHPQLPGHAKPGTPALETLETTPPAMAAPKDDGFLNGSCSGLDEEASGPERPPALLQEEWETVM
The experiment is described as follows: Binding to PTH receptor on SaOS-2 cells (competition with mono-125I-[Nle8,18,Tyr34(3-125I)]bPTH(1-34)NH2). Particulars: Table I, 2 hrs at room temperature, read-out: Kd (half maximal inhibition of binding of mono-125I-[Nle8,18, Tyr34(3-125I)]bPTH(1-34)NH2). In outline: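 Confluent SaOS-2 cells in 5% FBS RPMI were incubated 2 h at room temperature with 10×10^4 cpm mono-125I-[Nle8,18,Tyr34(3-125I)]bPTH(1-34)NH2 plus competing peptide at 10^−11 to 10^−4 M. After washing, cell-bound radioactivity was counted; Kd taken as half-maximal inhibition of tracer binding.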

For orientation: pKd means −log10 of the Kd, conventionally taken in molar units. As to `CCCC[C@H](NC(=O)[C@H](CC(=O)O)NC(=O)[C@H](CCC(N)=O)NC(=O)[C@H](CC(C)C)NC(=O)[C@H](CCCCN)NC(=O)[C@H](CCCCN)NC(=O)[C@H](CCCNC(=N)N)NC(=O)[C@H](CC(C)C)NC(=O)[C@H](Cc1c[nH]c2ccccc12)NC(=O)[C@H](CCC(=O)O)NC(=O)[C@@H](NC(=O)[C@H](CCCNC(=N)N)NC(=O)[C@H](CCC(=O)O)NC(=O)[C@H](CCSC)NC(=O)[C@H](CO)NC(=O)[C@H](CC(N)=O)NC(=O)[C@H](CC(C)C)NC(=O)[C@H](Cc1c[nH]cn1)NC(=O)[C@H](CCCCN)NC(=O)CNC(=O)[C@H](CC(C)C)NC(=O)[C@H](CC(N)=O)NC(=O)[C@H](Cc1c[nH]cn1)NC(=O)[C@H](CCSC)NC(=O)[C@H](CC(C)C)NC(=O)[C@H](CCC(N)=O)NC(=O)[C@@H](NC(=O)[C@H](CCC(=O)O)NC(=O)[C@H](CO)NC(=O)[C@@H](NC(=O)[C@@H](N)CO)C(C)C)[C@@H](C)CC)C(C)C)C(=O)N[C@@H](Cc1c[nH]cn1)C(=O)N[C@@H](CC(N)=O)C(=O)N[C@@H](Cc1ccccc1)C(N)=O` [[Nle^31]hPTH(1-34)NH2] (H-SVSEIQLMHNLGKHLNSMERVEWLRKKLQD[Nle]HNF-NH2), the pKd is 8.40.

Turning to `CC[C@H](C)[C@H](NC(=O)[C@H](CCC(=O)O)NC(=O)[C@H](CO)NC(=O)[C@@H](NC(=O)[C@@H](N)CO)C(C)C)C(=O)N[C@@H](CCC(N)=O)C(=O)N[C@@H](CC(C)C)C(=O)N[C@@H](CCSC)C(=O)N[C@@H](Cc1c[nH]cn1)C(=O)N[C@@H](CC(N)=O)C(=O)N[C@@H](CC(C)C)C(=O)NCC(=O)N[C@@H](CCCCN)C(=O)N[C@@H](Cc1c[nH]cn1)C(=O)N[C@@H](CC(C)C)C(=O)N[C@@H](CC(N)=O)C(=O)N[C@@H](CO)C(=O)N[C@@H](CCSC)C(=O)N[C@@H](CCC(=O)O)C(=O)N[C@@H](CCCNC(=N)N)C(=O)N[C@H](C(=O)N[C@@H](CCC(=O)O)C(=O)N[C@@H](Cc1c[nH]c2ccccc12)C(=O)N[C@@H](CC(C)C)C(=O)N[C@@H](CCCNC(=N)N)C(=O)N[C@@H](CCCCN)C(=O)N[C@@H](CCCCNC(=N)N)C(=O)N[C@@H](CC(C)C)C(=O)N[C@@H](CCC(N)=O)C(=O)N[C@@H](CC(=O)O)C(=O)N[C@H](C(=O)N[C@@H](Cc1c[nH]cn1)C(=O)N[C@@H](CC(N)=O)C(=O)N[C@@H](Cc1ccccc1)C(N)=O)C(C)C)C(C)C` [[hArg^27]hPTH(1-34)NH2] (H-SVSEIQLMHNLGKHLNSMERVEWLRK[hArg]LQDVHNF-NH2), the pKd was 8.15.

For the origin of these results see patent US7632811B2, “Analogs of parathyroid hormone” (Societe de Conseils de Recherches et D'Applications …, priority 1995, dated 2009).
